The values below come from paper PMC9030166, “Natural Phaeosphaeride A Derivatives Overcome Drug Resistance of Tumor Cells and Modulate Signaling Pathways” (Pharmaceuticals, 2022).

Series [1] deals with CMT № 1 (Extraskeletal Ewing’s Sarcoma). Kind of series: MTT cytotoxicity, primary culture of soft tissue sarcoma CMT № 1. Particulars: Homo sapiens, 48 h. The class given is cell-based. The source says: It is believed that such cultures have a molecular profile that corresponds more with cells from the human body, in comparison with that of stable cultures of tumor cells (Table 3).
(§1) Cell cultures used in the work: adhesive cultures HBL-100 cells (cells of a normal mammary gland epithelium, immortalized by the SV40 virus and acquired tumorigenicity); MCF-7 breast cancer cells; PC-3 prostate adenocarcinoma cells; HCT-116 colorectal cancer cells; non-small cell lung cancer cells A549; human embryonic kidney cells HEK293; suspension cultures (NCI-H929 and RPMI8226 multiple myeloma cells), K562 chronic myeloid leukemia cells; THP-1 acute monocytic leukemia cells; and Jurkat acute T-cell leukemia cells. We also used several primary cultures of soft tissue sarcomas at 3–4passeges, kindly provided by T.I. Fetisov (The Ethics Committee of N.N. Blokhin NMRCO, protocol code 18-28-09095 and date of approval 28 September 2018).
(§2) Modifications of cell lines: K562/i-S9 is a clone obtained after transfection of K562 cells with the ABCB1 (MDR1) gene-encoding P-glycoprotein [36]. Cells HBL-100/Dox and K562/i-S9_Dox are cells obtained by long-term selection with increasing concentrations of doxorubicin (Sigma-Aldrich, St. Louis, MO, USA) from HBL-100 and K562/i-S9 cells, respectively. MCF-7, A594 cells, and primary cultures of soft tissue sarcomas were cultured in DMEM medium (PanEko, Russia), PC-3 and HCT-116 cells and all suspension cultures in RPMI1640 medium (PanEko, Russia) supplemented with 10% fetal bovine serum (GE Healthcare LifeSciences, USA), and gentamicin at a concentration of 40 μg/mL at 37 °C and 5% CO2.
Cells MCF-7, PC-3, A549, and HCT-116, and primary cultures of STSwere seeded in 96-well plates, 6 × 10^3 cells per well in 90 μL of culture medium. Suspension cultures were seeded at a concentration of 25 × 10^3 cells per well in 135 μL of medium. The test substances were dissolved in DMSO (Applichem, Council Bluffs, IA, USA) until a concentration of 1 × 10^−^2 M was obtained; for the subsequent dilution of the substances, a serum-free culture medium was used. The next day, for adhesive cultures, and on the same day, for suspension cultures, substances were added to the plates in a volume of 10 μL (adhesive cultures) and 15 μL (suspension cultures) per well at various concentrations; each concentration was added in 3–4 repetitions. The cells were cultured in the presence of substances for 48 h. […] The optical density was determined using a Multiskan FC spectrophotometer (Thermo Scientific, Waltham, MA, USA) at a wavelength of 540 nm.
Based on the results of the experiments, a schedule was plotted of the dependence of the percentage of surviving cells (from control) on the concentration of the compound, and the sought concentration IC50 was calculated. […]

In the next series the test system is PC3. Description: MTT cytotoxicity, PC-3 prostate adenocarcinoma cells. In kind it is cell-based, human. Particulars: 48 h; for IC50: Homo sapiens, PC-3, adhesive tumor culture.
Source text: as §1, §2
(§3) Cells MCF-7, PC-3, A549, and HCT-116, and primary cultures of STSwere seeded in 96-well plates, 6 × 10^3 cells per well in 90 μL of culture medium. Suspension cultures were seeded at a concentration of 25 × 10^3 cells per well in 135 μL of medium. The test substances were dissolved in DMSO (Applichem, Council Bluffs, IA, USA) until a concentration of 1 × 10^−^2 M was obtained; for the subsequent dilution of the substances, a serum-free culture medium was used. The next day, for adhesive cultures, and on the same day, for suspension cultures, substances were added to the plates in a volume of 10 μL (adhesive cultures) and 15 μL (suspension cultures) per well at various concentrations; each concentration was added in 3–4 repetitions. The cells were cultured in the presence of substances for 48 h. Then, MTT reagent (PanEko, Moscow, Russia) was added to the wells at a concentration of 5 mg/mL in a volume of 20 μL per well. After 1.5–2 h, the medium with the reagent was removed, and the precipitate of the crystals of formazan was dissolved in 60 μL of DMSO. The optical density was determined using a Multiskan FC spectrophotometer (Thermo Scientific, Waltham, MA, USA) at a wavelength of 540 nm.
(§4) Based on the results of the experiments, a schedule was plotted of the dependence of the percentage of surviving cells (from control) on the concentration of the compound, and the sought concentration IC50 was calculated. The experiments were carried out in 3–4 times.

The next series concerns K562/i-S9. Description: MTT cytotoxicity, resistant K562/i-S9 cells (ABCB1 transfected). In kind it is cell-based, human. Particulars: for IC50: Homo sapiens, K562i/S9, resistant version, ABCB1 transfected, MTT, 48 h; for resistance of K562/i-S9 cells relative to K562: ratio of IC50 values, Table 4.
Source text: At the next stage, the cytotoxic activity of compounds 1, 2, and 9 (Scheme 2) was investigated on several pairs of cell lines that differ in the expression of P-gp and the method by which they were obtained. K562/i-S9 cells are the result of the ABCB1 transfection into K562 cells, which increases P-gp expression, but should not seriously affect other signaling pathways that could lead to drug resistance. K562/i-S9_Dox cells were obtained from K562/i-S9 by selection with low concentrations of doxorubicin to increase P-gp expression. Subline HBL-100/Dox is a derivative of HBL-100 cells, obtained by long-term selection with increasing concentrations of doxorubicin, which led not only to an increase in P-gp expression, but also to a change in the signaling pathways in this subline. Cells of the K562/i-S9_Dox subline express the highest level of P-gp: 94.7% ± 2.3 (p < 0.0001 relative to K562, and p = 0.04 relative to K562/i-S9). In cells of the K562/i-S9 line, the expression of P-gp is 80% ± 8.2 (p < 0.0001 relative to K562). At 0.7% ± 0.5, P-gp is practically not expressed in K562 cells (Figure 1).
as §2, §3, §4

A further series deals with CREB (pSer133). Description: MILLIPLEX MAP 9-Plex, CREB active form in A431 lysates. In kind it is cell-based, human. The following applies: A431 cell lysates, 10 μM, 1 h, M ± mx; control 154.5 ± 34.2. An excerpt:
We used the MILLIPLEX MAP Multi-Pathway Magnetic Bead 9-Plex-Cell Signaling Multiplex Assay, which allows the simultaneous detection of nine phosphorylated proteins that are markers of the main intracellular signaling pathways (phosphorylation site is indicated in parentheses), a universal transcription factor that controls the expression of immune response genes; apoptosis and cell cycle NFκB (pS536); cAMP-dependent transcription factor (CREB (pS133); mitogen-activated kinase p38 (pT180/pY182); stress-activated protein kinase JNK (pT183/pY185); ribosomal […]; transcription factors STAT3 (pS727) and STAT5A/B (pY694/699); protein kinase B (Akt) (pS473); and kinase regulated by extracellular signals ERK1/2 (pT185/pY187).
The effect of various concentrations of PPA derivatives on the cell culture was studied using xCelligence RTCA equipment (AceaBioscience, San Diego, CA, USA). The concentration closest to the IC50 (10 μM) was chosen as the experimental concentration. The selected concentration of phaeosphaeride A derivatives allows for the assessment of the early effect of compounds on cells and compares their effectiveness. In this experiment, the signaling pathways Akt (pSer473), p70S6K (pThr412), NFkB (p65-pSer536), and CREB (pSer133) were not activated (Table 8). The stress-activated signaling pathways ERK/MAP kinase 1/2 (pThr185/pTyr187), JNK (pThr183/pTyr185), and p38 (pThr180/pTyr182) were activated for these compounds.
We used a MILLIPLEX MAP Multi-Pathway Magnetic Bead 9-Plex-Cell Signaling Multiplex Assay kit (Merck/Millipore), according to the manufacturer’s protocol. A431 cells were cultured in DMEM with 10% FBS in 24-well plates. Compounds were added to the subconfluent cells at a concentration of 10 μM in DMEM medium for 1 h. Each compound was added in 5 experimental repeats. Cell lysates were prepared with lysis buffer (Millipore) with protease inhibitors (Complete, Roche); the protein concentration in the lysates was determined by the Lowry method. In samples equalized in protein concentration, the active forms of kinase cascades were determined using a Bio-Plex 200 fluorescent analyzer (Bio-Rad).

Structures are written as SMILES.

Regarding `C=C1C2=C(C(=O)N1OC)[C@@H](N1CCCC1)[C@@](C)(O)[C@H](CCCCC)O2` [Compound 1], the IC50 (commonly the concentration that gives 50% inhibition) in series [1] was found to be 2600 ± 1100 nM; in the series with PC3 it was 7600 ± 900 nM; in the series with K562/i-S9, 2400 ± 600 nM. Further, the “resistance of K562/i-S9 cells relative to K562” value in the series with K562/i-S9 was “slightly greater sensitivity”. Besides, the “CREB (pSer133) fluorescence intensity” value in the series with CREB (pSer133) is 329.9 ± 48.4 *↑ rel. units.

In the case of `C=C1C2=C(C(=O)N1OC)[C@@H](N(C)C)[C@@](C)(O)[C@H](CCCCC)O2` [Compound 2, (2S,3R,4R)-4-(dimethylamino)-3-hydroxy-6-methoxy-3-methyl-7-methylene-2-pentyl-3,4,6,7-tetrahydropyrano[2,3-c]pyrrol-5(2H)-one], the IC50 in series [1] came out at 1600 ± 700 nM; with PC3, 5900 ± 3000 nM; with K562/i-S9, 1600 ± 500 nM. In addition, in the series with CREB (pSer133), the “CREB (pSer133) fluorescence intensity” value is listed as 610.0 ± 113.0 *↑ rel. units.

As for `C=C1C2=C(C(=O)N1OC)[C@@H](N(CCCC)CCCC)[C@@](C)(O)[C@H](CCCCC)O2` [Compound 5, (2S,3R,4R)-4-(dibutylamino)-3-hydroxy-6-methoxy-3-methyl-7-methylene-2-pentyl-3,4,6,7-tetrahydropyrano[2,3-c]pyrrol-5(2H)-one], in the series with PC3, the IC50 was found to be 9400 ± 1000 nM. Also, the “CREB (pSer133) fluorescence intensity” value in the series with CREB (pSer133) came out at 202.1 ± 26.3 rel. units.

With `C=C1C2=C(C(=O)N1OC)[C@@H](N(CC)CCO)[C@@](C)(O)[C@H](CCCCC)O2` [Compound 9, (2S,3R,4R)-4-[ethyl(2-hydroxyethyl)amino]-3-hydroxy-6-methoxy-3-methyl-7-methylene-2-pentyl-3,4,6,7-tetrahydropyrano[2,3-c]pyrrol-5(2H)-one], the figures for the IC50 (in series [1]; with PC3; with K562/i-S9) were 2900 ± 1100 nM, 7800 ± 100 nM and 2800 ± 600 nM, respectively. For the same compound, the “resistance of K562/i-S9 cells relative to K562” value with K562/i-S9 is on record as “tendency towards increased sensitivity”. Moreover, the “CREB (pSer133) fluorescence intensity” value in the series with CREB (pSer133) is reported as 339.8 ± 53.3 *↑ rel. units.

Consider `CCCCC[C@@H]1OC2=C(C(=O)N(OC)/C2=C\n2cnnc2)C(n2cnnc2)[C@@]1(C)O` (stereo partly drawn) [Compound 10], for which, in the series with PC3 (adhesive tumor culture), the “IC50 value, PC3” value is on record as “not active”. The “CREB (pSer133) fluorescence intensity” value in the series on CREB (pSer133) was 584.8 ± 105.5 *↑ rel. units.
